Calls of active or inactive are those of the source. The calls are words filed in the database; no cut-off is given here.
Tests used:
[1] = target: T1, Nuclear factor erythroid 2-related factor 2 (Homo sapiens) (UniProt Q16236); experiment: Activation of Nrf2 in human BEAS2B cells assessed as upregulation of Nrf2 protein expression at 6.25 uM pretreated for 1 hr followed by co-treatment with PI3K inhibitor LY294002 for 18 hrs by immunoblot analysis; format: cell-based
T1 sequence (whole entry): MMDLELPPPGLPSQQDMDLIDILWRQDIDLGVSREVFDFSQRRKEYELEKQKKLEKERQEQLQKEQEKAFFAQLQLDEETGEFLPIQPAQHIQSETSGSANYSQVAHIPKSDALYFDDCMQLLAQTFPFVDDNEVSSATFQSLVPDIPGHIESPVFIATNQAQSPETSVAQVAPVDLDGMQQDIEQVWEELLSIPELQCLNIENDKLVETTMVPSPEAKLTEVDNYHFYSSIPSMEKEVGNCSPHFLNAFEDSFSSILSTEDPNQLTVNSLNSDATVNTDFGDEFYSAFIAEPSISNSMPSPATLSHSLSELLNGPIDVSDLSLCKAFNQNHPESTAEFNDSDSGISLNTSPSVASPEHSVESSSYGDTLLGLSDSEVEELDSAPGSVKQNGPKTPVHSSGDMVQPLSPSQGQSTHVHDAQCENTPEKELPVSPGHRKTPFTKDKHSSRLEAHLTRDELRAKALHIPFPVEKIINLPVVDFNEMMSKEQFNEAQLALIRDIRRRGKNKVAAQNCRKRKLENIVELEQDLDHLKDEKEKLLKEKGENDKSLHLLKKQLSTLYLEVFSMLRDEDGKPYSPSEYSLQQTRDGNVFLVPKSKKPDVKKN

[2] = target: T1, Nuclear factor erythroid 2-related factor 2 (Homo sapiens); experiment: Activation of Nrf2 in human MDA-MB-231 cells assessed as upregulation of NQO1 protein expression after 16 hrs by immunoblot analysis; format: cell-based
BEAS-2B [3] = experiment: Effect on Keap1 protein levels in human BEAS2B cells at 6.25 uM after 4 to 48 hrs by immunoblot analysis; format: functional, cell-based
[4] = target: T2, Nuclear factor erythroid 2-related factor 2 (Mus musculus) (UniProt Q60795); experiment: Activation of Nrf2 in mouse Heap1c1c7 cells assessed as induction of NAD(P)H:quinone reductase activity at 6.25 uM pretreated for 1 hr followed by co-treatment with PI3K inhibitor LY294002 for 24 hrs; format: cell-based
T2 sequence (whole entry): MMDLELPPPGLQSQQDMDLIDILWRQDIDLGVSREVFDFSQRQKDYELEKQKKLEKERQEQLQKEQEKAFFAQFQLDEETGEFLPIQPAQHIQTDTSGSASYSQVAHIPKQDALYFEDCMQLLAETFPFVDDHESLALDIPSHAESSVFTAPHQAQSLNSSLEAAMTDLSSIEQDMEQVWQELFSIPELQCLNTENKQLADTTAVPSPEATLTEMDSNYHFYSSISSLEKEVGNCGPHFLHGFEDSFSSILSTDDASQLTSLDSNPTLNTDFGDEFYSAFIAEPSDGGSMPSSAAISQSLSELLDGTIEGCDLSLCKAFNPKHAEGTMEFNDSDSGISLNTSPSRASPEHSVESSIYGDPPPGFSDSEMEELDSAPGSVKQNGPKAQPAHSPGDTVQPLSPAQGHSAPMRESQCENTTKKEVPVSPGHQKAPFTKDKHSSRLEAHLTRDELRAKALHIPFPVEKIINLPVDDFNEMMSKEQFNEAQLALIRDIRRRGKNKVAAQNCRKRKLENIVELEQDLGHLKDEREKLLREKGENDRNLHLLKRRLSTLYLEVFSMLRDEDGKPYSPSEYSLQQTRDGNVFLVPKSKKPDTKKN

BEAS-2B [5] = experiment: Downregulation of Keap1 protein levels in human BEAS2B cells at 50 to 100 uM after 18 hrs by immunoblot analysis; format: functional, cell-based
[6] = target: T1, Nuclear factor erythroid 2-related factor 2 (Homo sapiens); experiment: Activation of Nrf2 in human BEAS2B cells assessed as upregulation of Nrf2 protein expression at 6.25 uM pretreated for 1 hr followed by co-treatment with PKC inhibitor Ro-31-8220 for 18 hrs by immunoblot analysis; format: cell-based
[7] = target: T1, Nuclear factor erythroid 2-related factor 2 (Homo sapiens); experiment: Activation of Nrf2 in human MDA-MB-231 cells assessed as upregulation of gamma-GCS protein expression after 16 hrs by immunoblot analysis; format: cell-based
[8] = target: T1, Nuclear factor erythroid 2-related factor 2 (Homo sapiens); experiment: Activation of Nrf2 in human BEAS2B cells assessed as upregulation of NQO1 protein expression at 6.25 uM after 48 hrs by immunoblot analysis; format: cell-based
[9] = target: T1, Nuclear factor erythroid 2-related factor 2 (Homo sapiens); experiment: Activation of Nrf2 in human BEAS2B cells assessed as upregulation of NQO1 protein expression at 6.25 uM pretreated for 1 hr followed by co-treatment with PKC inhibitor Ro-31-8220 for 18 hrs by immunoblot analysis; format: cell-based
[10] = target: T1, Nuclear factor erythroid 2-related factor 2 (Homo sapiens); experiment: Activation of Nrf2 in human BEAS2B cells assessed as upregulation of NQO1 protein expression at 6.25 uM pretreated for 1 hr followed by co-treatment with PKC inhibitor Go6983 for 18 hrs by immunoblot analysis; format: cell-based
[11] = target: T1, Nuclear factor erythroid 2-related factor 2 (Homo sapiens); experiment: Activation of Nrf2 in human BEAS2B cells assessed as upregulation of NQO1 protein expression at 6.25 uM pretreated for 1 hr followed by co-treatment with p38 MAPK inhibitor SB203580 for 18 hrs by immunoblot analysis; format: cell-based
[12] = target: T1, Nuclear factor erythroid 2-related factor 2 (Homo sapiens); experiment: Activation of Nrf2 in human BEAS2B cells assessed as upregulation of Nrf2 protein expression at 6.25 uM pretreated for 1 hr followed by co-treatment with p38 MAPK inhibitor SB203580 for 18 hrs by immunoblot analysis; format: cell-based
BEAS-2B [13] = experiment: Cytoprotective activity in human BEAS2B cells transfected with Nrf2-SiRNA assessed as decrease in As(+3)-induced cell death at 6.25 uM preincubated for 8 hrs followed by As(+3) challenge and measured after 24 hrs by MTT assay; format: functional, cell-based
BEAS-2B [14] = experiment: Cytotoxicity against human BEAS2B cells assessed as decrease in cell viability up to 25 uM after 48 hrs by MTT assay; format: cell-based
[15] = target: T2, Nuclear factor erythroid 2-related factor 2 (Mus musculus); experiment: Activation of Nrf2 in mouse Heap1c1c7 cells assessed as induction of NAD(P)H:quinone reductase activity at 6.25 uM pretreated for 1 hr followed by co-treatment with PI3K inhibitor wortmannin for 24 hrs; format: cell-based
[16] = target: T1, Nuclear factor erythroid 2-related factor 2 (Homo sapiens); experiment: Activation of Nrf2 in human BEAS2B cells assessed as upregulation of gamma-GCS protein expression at 6.25 uM after 48 hrs by immunoblot analysis; format: cell-based
[17] = target: T2, Nuclear factor erythroid 2-related factor 2 (Mus musculus); experiment: Activation of Nrf2 in mouse Heap1c1c7 cells assessed as induction of NAD(P)H:quinone reductase activity at 6.25 uM pretreated for 1 hr followed by co-treatment with PKC inhibitor Go6983 for 24 hrs; format: cell-based
[18] = target: T1, Nuclear factor erythroid 2-related factor 2 (Homo sapiens); experiment: Activation of Nrf2 in human BEAS2B cells assessed as upregulation of gamma-GCS protein expression at 6.25 uM after 8 to 24 hrs by immunoblot analysis; format: cell-based
[19] = target: T1, Nuclear factor erythroid 2-related factor 2 (Homo sapiens); experiment: Activation of Nrf2 in human MDA-MB-231 cells assessed as upregulation of Nrf2 protein expression after 16 hrs by immunoblot analysis; format: cell-based
[20] = target: T1, Nuclear factor erythroid 2-related factor 2 (Homo sapiens); experiment: Induction of Nrf2 translocation from cytoplasm to nucleus in human BEAS2B cells at 6.25 uM after 18 hrs by immunoblot analysis; format: cell-based

## COc1ccc(-c2coc3cc(OC)cc(O)c3c2=O)cc1 [4',7-DIMETHOXY-5-HYDROXYGENISTEIN]
[1]
  Activity: inactive
[2]
  Activity: Dose-dependent effect
BEAS-2B [3]
  Activity: inactive
[4]
  Activity: inactive
BEAS-2B [5]
  Activity: Active
[6]
  Activity: inactive
[7]
  Activity: Dose-dependent effect
[8]
  Activity: inactive
[9]
  Activity: inactive
[10]
  Activity: inactive
[11]
  Activity: inactive
[12]
  Activity: inactive
BEAS-2B [13]
  Activity: inactive
BEAS-2B [14]
  Activity: Non-Toxic
[15]
  Activity: Active
[16]
  Activity: inactive
[17]
  Activity: inactive
[18]
  Activity: Active
[19]
  Activity: Dose-dependent effect
[20]
  Activity: Active
